In publication PMC11855827, “High-Throughput Screening of Five Compound Libraries for Anthelmintic Activity and Toxicity Leads to the Discovery of Two Flavonoid Compounds” (International Journal of Molecular Sciences, 2025):
Where “and” joins values, the source holds several entries; their conditions need not be identical. Equal entries are not always repeated. Where two headings read alike, the source gives them in different places.

What was measured:
[1] = tested on: C. elegans; test: microbe, parasite or virus in culture; conditions: Caenorhabditis elegans
[2] = tested on: C. elegans
[3] = 24 h, read-out: Percentage of motility inhibition 24 h, Table S2, C. elegans SS assay, 110 μM, 24 h, averages of 4 data points
[4] = Table S2, C. elegans SS assay, 110 μM, averages of 4 data points
[5] = Table S2, C. elegans SS assay, 110 μM, 24 h, averages of 4 data points
[6] = 0 h, read-out: Percentage of motility inhibition 0 h, Table S2, C. elegans SS assay, 110 μM, 0 h, averages of 4 data points
[7] = 0 h, read-out: Percentage of motility inhibition 0 h

Structure (SMILES): CC[C@H]1OC(=O)[C@H](C)[C@@H](O[C@H]2C[C@@](C)(OC)[C@@H](O)[C@H](C)O2)[C@H](C)[C@@H](O[C@@H]2O[C@H](C)C[C@H](N(C)C)[C@H]2O)[C@](C)(O)C[C@@H](C)C(=O)[C@H](C)[C@@H](O)[C@]1(C)O [Erythromycin]
- inhibition at 110 µM [1, 3]: 5%
- Percentage of motility inhibition 0 h [2, 4]: 10% and 0%

Structure (SMILES): C[C@H]1C(=O)O[C@@H]2CCN3CC=C(COC(=O)[C@](C)(O)[C@]1(C)O)[C@H]23 [Monocrotaline]
- inhibition at 110 µM [1, 3]: 12%
- Percentage of motility inhibition 0 h [2, 4]: 2%
- Percentage of motility inhibition 24 h [2, 5]: 15%

Structure (SMILES): COC(=O)[C@H]1[C@H]2C[C@@H]3c4[nH]c5ccccc5c4CCN3C[C@H]2C[C@@H](OC(=O)c2cc(OC)c(OC)c(OC)c2)[C@@H]1OC [Deserpidine]
- inhibition at 110 µM [1, 3]: 21%
- Percentage of motility inhibition 24 h [2, 5]: 23%

Structure (SMILES): CC[C@@]1(O)C(=O)OCc2c1cc1n(c2=O)Cc2cc3ccccc3nc2-1 [Camptothecin]
- inhibition at 110 µM [1, 6]: 25%
- inhibition at 110 µM [1, 3]: 6%
- Percentage of motility inhibition 24 h [2, 5]: 3%

Structure (SMILES): COc1ccc2cc1Oc1ccc(cc1)C[C@H]1c3cc(c(OC)cc3CCN1C)Oc1c(OC)c(OC)cc3c1[C@H](C2)N(C)CC3 [Tetrandrine]
- inhibition at 110 µM [1, 3]: 16%
- Percentage of motility inhibition 24 h ([2]; 24 h, 110 µM): 12%

Structure (SMILES): CCn1cc(C(=O)O)c(=O)c2ccc(C)nc21 [Nalidixic acid]
- inhibition at 110 µM [1, 6]: 27%
- inhibition at 110 µM [1, 3]: 18%
- Percentage of motility inhibition 0 h [2, 4]: 22%
- Percentage of motility inhibition 24 h [2, 5]: 26%

Structure (SMILES): CC(C)(O)[C@H]1O[C@H]2CC[C@@]3(C)[C@@](O)(CC[C@H]4Cc5c([nH]c6ccccc56)[C@@]43C)C2=CC1=O [Paxilline]
- inhibition at 110 µM [1, 6]: 12%
- Percentage of motility inhibition 24 h [2, 5]: 0% and 8%

Structure (SMILES): COC(=O)[C@@H]1[C@H]2C[C@H]3c4[nH]c5ccccc5c4CCN3C[C@@H]2CC[C@@H]1O [Yohimbine]
- inhibition at 110 µM [1, 6]: 7%
- Percentage of motility inhibition 0 h ([2]; 110 μM): 8%

Structure (SMILES): C=C(C)[C@@H]1CC[C@]2(C(=O)O)CC[C@]3(C)[C@H](CC[C@@H]4[C@@]5(C)CC[C@H](O)C(C)(C)[C@@H]5CC[C@]43C)[C@@H]12 [Betulinic acid]
- inhibition at 110 µM [1, 6]: 27%
- Percentage of motility inhibition 0 h [2, 4]: 22%

Structure (SMILES): CC1(C)CC[C@]2(C(=O)O)CC[C@]3(C)C(=CC[C@@H]4[C@@]5(C)CC[C@H](O)C(C)(C)[C@@H]5CC[C@]43C)[C@@H]2C1 [Oleanolic Acid]
- inhibition at 110 µM [1, 7]: 4%
- Percentage of motility inhibition 24 h ([2]; 110 µM): 1% and 0%

Structure (SMILES): CC(C)=CCC/C(C)=C/CC/C(C)=C/CC/C=C(\C)CC/C=C(\C)CCC=C(C)C [Squalene]
- inhibition at 110 µM [1, 6]: 4%
- inhibition at 110 µM [1, 3]: 11%
- Percentage of motility inhibition 24 h ([2]; 24 h, 110 µM): 19%

Structure (SMILES): C[C@H]1[C@H](OC(=O)CCC(=O)O)O[C@@H]2O[C@@]3(C)CC[C@H]4[C@H](C)CC[C@@H]1[C@@]24OO3 [Artesunate]
- inhibition at 110 µM [1, 6]: 12%
- inhibition at 110 µM [1, 3]: 30%
- Percentage of motility inhibition 0 h [2, 4]: 21%
- Percentage of motility inhibition 24 h [2, 5]: 15%

Structure (SMILES): O=C1N[C@@H](Cc2c[nH]c3ccccc23)C(=O)N2CCC[C@@H]12 [Brevianamide F]
- inhibition at 110 µM [1, 7]: 31%
- inhibition at 110 µM ([1]; 24 h, read-out: Percentage of motility inhibition 24 h): 18%

Structure (SMILES): COc1cc(-c2oc3cc(O)cc(O)c3c(=O)c2O)ccc1O [Isorhamnetin]
- inhibition at 110 µM [1, 6]: 22%
- inhibition at 110 µM [1, 3]: 2%

Structure (SMILES): C[C@@H](O)[C@H]1C(=O)N2C(C(=O)O)=C(SC3CN(C4=NCCS4)C3)[C@H](C)[C@H]12 [Tebipenem]
- inhibition at 110 µM [1, 6]: 0%
- inhibition at 110 µM [1, 3]: 7%

Structure (SMILES): O=C1OCCN1/N=C/c1ccc([N+](=O)[O-])o1 [Furazolidone]
- inhibition at 110 µM [1, 6]: 21%
- inhibition at 110 µM [1, 3]: 7%

Structure (SMILES): C=CC1=C(C(=O)O)N2C(=O)[C@@H](NC(=O)/C(=N\O)c3csc(N)n3)[C@H]2SC1 [Cefdinir]
- inhibition at 110 µM [1, 6]: 0%
- inhibition at 110 µM [1, 3]: 0%

Structure (SMILES): CC[C@H]1OC(=O)C[C@@H](O)[C@H](C)[C@@H](O[C@@H]2O[C@H](C)[C@@H](O[C@H]3C[C@@](C)(O)[C@@H](O)[C@H](C)O3)[C@H](N(C)C)[C@H]2O)[C@@H](CC=O)C[C@@H](C)C(=O)/C=C/C(C)=C/[C@@H]1CO[C@@H]1O[C@H](C)[C@@H](O)[C@@H](OC)[C@H]1OC [Tylosin]
- inhibition at 110 µM [1, 6]: 22%
- inhibition at 110 µM [1, 3]: 0%

Structure (SMILES): CC1CCc2cc(F)cc3c(=O)c(C(=O)O)cn1c23 (stereo not drawn) [Flumequine]
- inhibition at 110 µM [1, 6]: 20%
- inhibition at 110 µM [1, 3]: 21%

Structure (SMILES): CC1=C(C(=O)O)N2C(=O)[C@@H](NC(=O)[C@H](N)C3=CCC=CC3)[C@H]2SC1 [Cefradine]
- inhibition at 110 µM [1, 6]: 37%
- inhibition at 110 µM [1, 3]: 11%

Structure (SMILES): CCC(C)n1ncn(-c2ccc(N3CCN(c4ccc(OCC5COC(Cn6cncn6)(c6ccc(Cl)cc6Cl)O5)cc4)CC3)cc2)c1=O (stereo not drawn) [Itraconazole]
- inhibition at 110 µM [1, 6]: 18%
- inhibition at 110 µM [1, 3]: 22%

Structure (SMILES): N[C@@H](CO)C(=O)O [L-Serine]
- inhibition at 110 µM [1, 6]: 0%
- inhibition at 110 µM [1, 3]: 0%

Structure (SMILES): CN(C)[C@@H]1C(O)=C(C(N)=O)C(=O)[C@@]2(O)C(O)=C3C(=O)c4c(O)cccc4[C@@](C)(O)[C@H]3[C@H](O)[C@@H]12 [Oxytetracycline]
- inhibition at 110 µM [1, 6]: 20%
- inhibition at 110 µM [1, 3]: 13%

Structure (SMILES): O[C@H]1[C@H](O)[C@@H](O)CN2CC[C@H](O)[C@H]12 [Castanospermine]
- inhibition at 110 µM [1, 6]: 0%
- inhibition at 110 µM [1, 3]: 0%

Structure (SMILES): NC(=O)c1ncn([C@@H]2O[C@H](CO)[C@@H](O)[C@H]2O)c1O [Mizoribine]
- inhibition at 110 µM [1, 6]: 28%
- inhibition at 110 µM [1, 3]: 29%
